Data taken from ChEMBL document CHEMBL4831557, “Parthenolide Derivatives as PKM2 Activators Showing Potential in Colorectal Cancer” (J Med Chem, 2021).

Tests used:
HT-29 = experiment: Cytotoxicity against human HT-29 cells assessed as reduction in cell viability incubated for 48 hrs by MTT assay; type: functional, cell-based; conditions: HT-29, 48 h
SW480 = experiment: Cytotoxicity against human SW480 cells assessed as reduction in cell viability incubated for 48 hrs by MTT assay; type: functional, cell-based; conditions: SW480, 48 h
HCT-116 = experiment: Cytotoxicity against human HCT-116 cells assessed as reduction in cell viability incubated for 48 hrs by MTT assay; type: functional, cell-based; conditions: HCT-116, 48 h
U2OS = experiment: Cytotoxicity against human U2OS cells assessed as reduction in cell viability incubated for 48 hrs by MTT assay; type: functional, cell-based
HepG2 = experiment: Cytotoxicity against human HepG2 cells assessed as reduction in cell viability incubated for 48 hrs by MTT assay; type: functional, cell-based; conditions: HepG2, 48 h
MDA-MB-231 = experiment: Cytotoxicity against human MDA-MB-231 cells assessed as reduction in cell viability incubated for 48 hrs by MTT assay; type: functional, cell-based; conditions: MDA-MB-231, 48 h
A549 = experiment: cells; conditions: Homo sapiens, A549, 48 h

SMILES	IC50 (HT-29)	IC50 (SW480)	IC50 (HCT-116)	IC50 (U2OS)	IC50 (HepG2)	IC50 (MDA-MB-231)	IC50 (A549)
C=C1C(=O)O[C@H]2[C@H]1CC/C(COC(=O)c1n[nH]c(=O)c3ccccc13)=C/CC[C@@]1(C)O[C@@H]21	6.26 µM	2.43 µM	6.86 µM	7.81 µM	9.63 µM	6.26 µM	4.52 µM
C=C1C(=O)O[C@H]2[C@H]1CC/C(COC(=O)Cc1ccc3ncccc3c1)=C/CC[C@@]1(C)O[C@@H]21	1.4 µM	1.8 µM	1.79 µM	6.62 µM	5.9 µM	4.13 µM	2.76 µM
C=C1C(=O)O[C@H]2[C@H]1C[C@H](OC(=O)c1ccc3ncccc3c1)C(C)=C1CC[C@@](C)(O)[C@@H]12	1.46 µM	0.4 µM	1.1 µM	2.36 µM	4.53 µM	2.66 µM	1.58 µM
C=C1C(=O)O[C@H]2[C@H]1CC/C(COC(=O)c1ccc3nc(Cl)ccc3c1)=C/CC[C@@]1(C)O[C@@H]21	1.42 µM	0.46 µM	1.77 µM	2.46 µM	4.83 µM	2.69 µM	1.75 µM
C=C1C(=O)O[C@H]2[C@H]1CC/C(COC(=O)Cc1n[nH]c(=O)c3ccccc13)=C/CC[C@@]1(C)O[C@@H]21	2.56 µM	2.28 µM	2.87 µM	8.53 µM	8.44 µM	5.49 µM	5.79 µM
C=C1C(=O)O[C@H]2[C@H]1CC/C(C(=O)Oc1ccc3nccc(Cl)c3c1)=C/CC[C@@]1(C)O[C@@H]21	1.22 µM	0.59 µM	1.29 µM	2.21 µM	4.03 µM	2.25 µM	2.74 µM
C/C1=C\CC[C@@]2(C)O[C@H]2[C@H]2OC(=O)/C(=C\c3ccc4ncccc4c3)[C@@H]2CC1	6.66 µM	2.71 µM	6.55 µM	2.78 µM	23.6 µM	12.5 µM	16.8 µM
C=C1C(=O)O[C@H]2[C@H]1CC/C(C(=O)CN1CCN(C(=O)c3ccc4ccccc4n3)CC1)=C/CC[C@@]1(C)O[C@@H]21	4.83 µM	3.3 µM	5.27 µM	13 µM	7.75 µM	8.37 µM	14.8 µM
C=C1C(=O)O[C@H]2[C@H]1CC/C(COC(=O)c1ccc3nccnc3c1)=C/CC[C@@]1(C)O[C@@H]21	2.52 µM	1.25 µM	2.82 µM	3.18 µM	6.84 µM	2.97 µM	2.2 µM
C/C1=C\CC[C@@]2(C)O[C@H]2[C@H]2OC(=O)/C(=C\c3ccc4nc[nH]c(=O)c4c3)[C@@H]2CC1	28.6 µM	34 µM	32.9 µM	24.6 µM	86.7 µM	55.1 µM	33.5 µM
C=C1C(=O)O[C@H]2[C@H]1CC[C@@]1(COC(=O)c3ccc4ncccc4c3)O[C@@H]1CC[C@@]1(C)O[C@@H]21	0.94 µM	2.4 µM	1.8 µM	6.43 µM	7.13 µM	6.61 µM	6.69 µM
C=C1C(=O)O[C@H]2[C@H]1CC/C(COC(=O)c1ccc3ccccc3n1)=C/CC[C@@]1(C)O[C@@H]21	2.68 µM	1.2 µM	2.97 µM	2.22 µM	8.84 µM	2.14 µM	2.95 µM
C=C1C(=O)O[C@H]2[C@H]1CC/C(COC(=O)CCn1cnc3ccccc3c1=O)=C/CC[C@@]1(C)O[C@@H]21	5.21 µM	3.23 µM	5.71 µM	7.76 µM	17.9 µM	8.37 µM	8.63 µM
